Here are results for five compounds from article PMC4818591 (ChemMedChem, 2015).

The term GI50 denotes the concentration that inhibits growth by half. By IC50 is commonly meant the concentration that inhibits the measured activity by half.

Test [1] deals with HDAC1 (Homo sapiens, UniProt Q13547). Kind of test: HDAC1 isozyme inhibition. Conditions: for SI HDAC1/6: selectivity index. Type of test: biochemical.
The target of test [2] is HDAC2 (Homo sapiens, UniProt Q92769). Kind of test: HDAC2 isozyme inhibition. Format: biochemical. Conditions: for SI HDAC2/6: selectivity index.
HDAC2, sequence (Q92769 whole entry): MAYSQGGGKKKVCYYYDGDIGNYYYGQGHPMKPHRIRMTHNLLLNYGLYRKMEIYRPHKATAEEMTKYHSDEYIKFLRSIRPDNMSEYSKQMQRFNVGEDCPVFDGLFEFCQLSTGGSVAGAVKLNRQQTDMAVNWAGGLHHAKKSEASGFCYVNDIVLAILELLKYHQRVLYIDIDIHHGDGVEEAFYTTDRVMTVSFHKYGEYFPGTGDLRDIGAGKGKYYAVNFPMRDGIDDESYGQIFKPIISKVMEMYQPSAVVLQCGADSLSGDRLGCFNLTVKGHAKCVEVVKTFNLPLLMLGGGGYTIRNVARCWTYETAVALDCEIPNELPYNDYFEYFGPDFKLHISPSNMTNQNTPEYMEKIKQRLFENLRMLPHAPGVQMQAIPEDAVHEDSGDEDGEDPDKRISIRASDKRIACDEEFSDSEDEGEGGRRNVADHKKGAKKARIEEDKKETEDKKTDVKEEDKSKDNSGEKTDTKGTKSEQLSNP
Test [3] addresses HDAC3 (Homo sapiens, UniProt O15379). Kind of test: HDAC3 isozyme inhibition. Type of test: biochemical. Conditions: for SI HDAC3/6: selectivity index.
The target of test [4] is T1, HDAC10 (Homo sapiens, UniProt Q969S8).
T1 sequence (Q969S8 1-669): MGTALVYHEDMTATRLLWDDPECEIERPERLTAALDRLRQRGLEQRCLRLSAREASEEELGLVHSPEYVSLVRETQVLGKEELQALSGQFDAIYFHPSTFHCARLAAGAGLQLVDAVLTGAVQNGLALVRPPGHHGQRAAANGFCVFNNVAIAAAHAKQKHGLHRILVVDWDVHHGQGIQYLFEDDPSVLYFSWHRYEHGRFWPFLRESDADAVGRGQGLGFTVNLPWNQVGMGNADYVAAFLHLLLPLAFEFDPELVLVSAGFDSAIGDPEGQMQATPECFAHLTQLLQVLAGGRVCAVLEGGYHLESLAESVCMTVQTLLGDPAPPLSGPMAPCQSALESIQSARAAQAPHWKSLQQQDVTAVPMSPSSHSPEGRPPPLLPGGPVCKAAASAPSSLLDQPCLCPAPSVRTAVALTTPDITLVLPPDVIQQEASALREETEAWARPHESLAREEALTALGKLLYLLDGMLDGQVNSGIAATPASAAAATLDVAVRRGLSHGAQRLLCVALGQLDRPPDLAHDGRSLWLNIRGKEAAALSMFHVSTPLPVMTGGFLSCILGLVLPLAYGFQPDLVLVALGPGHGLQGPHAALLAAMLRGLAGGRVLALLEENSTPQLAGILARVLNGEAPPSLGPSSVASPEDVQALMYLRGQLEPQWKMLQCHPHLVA
The test can be described thus: HDAC10 isozyme inhibition. Format: biochemical. Conditions: for SI HDAC10/6: selectivity index.

Test [5] has as its system L3.6pl pancreatic cancer cells. Kind of test: Growth inhibition, MTS cell proliferation assay, L3.6pl. Type of test: cell-based. Conditions: Homo sapiens, 72 h, read-out: L3.6pl GI50. A general note: Formazan colour is commonly taken as a measure of viable cells.
The subject of test [6] is L3.6pl pancreatic cancer cells. The test can be described thus: Apoptosis by Hoechst staining and PARP cleavage, L3.6pl. Format: cell-based. Conditions: 10 μM, 24 h.
Test [7] deals with BxPC3 pancreatic cancer cells. Kind of test: Apoptosis induction, BxPC3. Format: cell-based. Conditions: BxPC3, data not shown.
Test [8] has as its target T2, HDAC6 (Homo sapiens, UniProt Q9UBN7).
T2 sequence (Q9UBN7 1-1215): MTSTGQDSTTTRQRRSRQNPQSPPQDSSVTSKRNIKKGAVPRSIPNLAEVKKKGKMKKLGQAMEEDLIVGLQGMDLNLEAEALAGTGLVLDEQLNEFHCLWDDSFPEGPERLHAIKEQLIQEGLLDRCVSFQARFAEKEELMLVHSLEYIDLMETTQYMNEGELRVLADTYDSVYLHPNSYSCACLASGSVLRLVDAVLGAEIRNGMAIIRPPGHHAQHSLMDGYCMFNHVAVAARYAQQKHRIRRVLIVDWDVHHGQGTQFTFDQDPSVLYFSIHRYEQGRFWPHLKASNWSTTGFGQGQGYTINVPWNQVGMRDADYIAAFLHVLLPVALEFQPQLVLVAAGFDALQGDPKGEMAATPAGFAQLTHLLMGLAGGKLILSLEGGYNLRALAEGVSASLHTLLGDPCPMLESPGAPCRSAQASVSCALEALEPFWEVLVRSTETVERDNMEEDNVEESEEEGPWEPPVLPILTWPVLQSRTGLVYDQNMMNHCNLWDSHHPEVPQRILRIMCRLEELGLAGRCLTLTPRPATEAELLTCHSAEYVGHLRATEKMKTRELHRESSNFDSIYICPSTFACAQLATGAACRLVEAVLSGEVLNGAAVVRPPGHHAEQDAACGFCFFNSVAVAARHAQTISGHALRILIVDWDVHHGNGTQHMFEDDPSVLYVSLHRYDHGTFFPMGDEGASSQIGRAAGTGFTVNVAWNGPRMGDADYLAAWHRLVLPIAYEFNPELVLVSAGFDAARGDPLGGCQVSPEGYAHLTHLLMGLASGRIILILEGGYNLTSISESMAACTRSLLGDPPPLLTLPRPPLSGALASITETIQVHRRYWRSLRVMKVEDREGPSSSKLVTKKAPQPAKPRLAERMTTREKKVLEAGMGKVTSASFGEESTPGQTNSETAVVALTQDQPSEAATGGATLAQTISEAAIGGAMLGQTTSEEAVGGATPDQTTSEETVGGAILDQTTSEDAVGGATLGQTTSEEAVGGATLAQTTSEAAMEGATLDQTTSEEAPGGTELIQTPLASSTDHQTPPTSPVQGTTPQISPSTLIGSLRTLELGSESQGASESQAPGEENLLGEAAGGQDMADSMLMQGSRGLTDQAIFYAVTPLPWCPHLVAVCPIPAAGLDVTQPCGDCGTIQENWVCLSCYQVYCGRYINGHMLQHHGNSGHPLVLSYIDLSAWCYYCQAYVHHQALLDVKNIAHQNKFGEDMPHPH
The test can be described thus: HDAC6 isozyme inhibition. Format: biochemical.

In test [9] the test system is BxPC3 subcutaneous xenograft. Conditions: BxPC3 subcutaneous xenograft mouse model; cited from earlier work.

Like-named read-outs stand apart in the source and are kept apart here.

HDAC3, sequence (O15379 whole entry): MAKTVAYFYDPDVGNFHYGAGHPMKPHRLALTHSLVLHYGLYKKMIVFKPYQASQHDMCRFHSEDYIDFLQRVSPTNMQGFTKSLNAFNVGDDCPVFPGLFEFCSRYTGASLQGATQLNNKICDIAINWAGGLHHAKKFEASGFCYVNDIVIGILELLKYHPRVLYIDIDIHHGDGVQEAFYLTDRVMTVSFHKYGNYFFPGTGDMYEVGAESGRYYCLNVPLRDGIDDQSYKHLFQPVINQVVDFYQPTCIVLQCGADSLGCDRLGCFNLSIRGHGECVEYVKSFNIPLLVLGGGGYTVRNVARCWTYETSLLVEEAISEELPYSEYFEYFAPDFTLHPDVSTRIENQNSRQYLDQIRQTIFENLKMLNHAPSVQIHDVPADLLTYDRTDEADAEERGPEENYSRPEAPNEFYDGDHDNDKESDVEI
HDAC3, sequence (Q9Y618 395-489 partner limits assumed): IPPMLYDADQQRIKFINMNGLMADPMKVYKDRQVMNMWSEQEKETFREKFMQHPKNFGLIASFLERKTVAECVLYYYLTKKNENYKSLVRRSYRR
HDAC1, sequence (Q13547 whole entry): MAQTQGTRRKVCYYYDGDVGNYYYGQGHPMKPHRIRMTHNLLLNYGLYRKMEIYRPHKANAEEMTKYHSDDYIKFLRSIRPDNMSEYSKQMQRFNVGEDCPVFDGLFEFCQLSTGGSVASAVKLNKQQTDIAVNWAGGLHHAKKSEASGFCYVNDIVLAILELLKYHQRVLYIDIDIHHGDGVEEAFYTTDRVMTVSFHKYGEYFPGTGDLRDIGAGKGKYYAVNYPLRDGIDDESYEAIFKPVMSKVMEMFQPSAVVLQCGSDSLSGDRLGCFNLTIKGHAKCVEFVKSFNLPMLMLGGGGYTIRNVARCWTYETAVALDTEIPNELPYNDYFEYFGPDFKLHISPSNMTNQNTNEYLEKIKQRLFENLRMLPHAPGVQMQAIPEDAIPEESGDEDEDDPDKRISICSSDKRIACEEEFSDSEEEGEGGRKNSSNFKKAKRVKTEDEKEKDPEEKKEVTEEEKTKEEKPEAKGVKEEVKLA

As to `O=C(CCCc1cc(C(=O)NO)no1)Nc1nc(-c2ccccc2)cs1` [Compound 1, 5-[3-[N-(4-Phenylthiazol-2-yl)carbamoyl]propyl]isoxazole-3-carbohydroxamic Acid], the “SI HDAC1/6” value in [1] was 4.3. Besides, in test [2], the “SI HDAC2/6” value was 15. The “SI HDAC3/6” value in test [3] was determined as 11. Also, in test [4], the “SI HDAC10/6” value is listed as 10. The GI50 in [5] is 1300 nM. Further, the “induction of apoptosis (Hoechst staining, PARP cleavage)” value in test [6] is on record as “effectively induced apoptosis”. In test [7], the induction of apoptosis result is “none of compounds 1, 2, or 4 induced apoptosis”.

Regarding `O=C(CCc1cc(C(=O)NO)no1)Nc1nc(-c2ccccc2)cs1` [Compound 2, 5-[2-[N-(4-Phenylthiazol-2-yl)carbamoyl]ethyl]isoxazole-3-carbohydroxyamic Acid], the IC50 in test [1] (read-out: HDAC Isoform, IC50, Class I, 1, singlet, 10-dose IC50 mode, 3-fold serial dilution starting at 30 μM, >50000 = no inhibition at 50 μM) was 307 nM; in test [2] (read-out: HDAC Isoform, IC50, Class I, 2, singlet, 10-dose IC50 mode, 3-fold serial dilution starting at 30 μM, >50000 = no inhibition at 50 μM) it was 1140 nM; in test [3] (read-out: HDAC Isoform, IC50, Class I, 3, singlet, 10-dose IC50 mode, 3-fold serial dilution starting at 30 μM, >50000 = no inhibition at 50 μM) it was 320 nM; in test [8] (read-out: HDAC Isoform, IC50, Class II, 6, duplicate, 10-dose IC50 mode, 3-fold serial dilution starting at 30 μM, average ± standard deviation) it was 31 ± 3.4 nM; in test [4] (read-out: HDAC Isoform, IC50, Class II, 10, singlet, 10-dose IC50 mode, 3-fold serial dilution starting at 30 μM, >50000 = no inhibition at 50 μM), 407 nM. Further, the “SI HDAC1/6” value in [1] is 10. Further, the “SI HDAC2/6” value in test [2] is listed as 37. Also, in test [3], the “SI HDAC3/6” value is on record as 10. In addition, in [4], the “SI HDAC10/6” value was found to be 13. The “induction of apoptosis (Hoechst staining, PARP cleavage)” value in test [6] is reported as “effectively induced apoptosis”. Also, the induction of apoptosis result in [7] is “none of compounds 1, 2, or 4 induced apoptosis”.

For `CCOC(=O)Nc1ccc(-c2csc(NC(=O)CCCc3cc(C(=O)NO)no3)n2)cc1` [Compound 4, N-[4-[2-[4-[3-(N-Hydroxycarbamoyl)isoxazol-5-yl]butyrylamino]thiazol-4-yl]phenyl]carbamic Acid Ethyl Ester], the “SI HDAC1/6” value in test [1] is 4.1. The “SI HDAC2/6” value in test [2] is reported as 17. In addition, the “SI HDAC3/6” value in [3] is given as 7.2. Besides, the “SI HDAC10/6” value in test [4] is 6.6. For the same compound, the “induction of apoptosis (Hoechst staining, PARP cleavage)” value in [6] was “effectively induced apoptosis”. For the same compound, the induction of apoptosis result in test [7] is “none of compounds 1, 2, or 4 induced apoptosis”.

For `O=C(NO)c1cc(Cn2c3ccccc3c3ccccc32)on1` [Compound 17, 5-(Carbazol-9-ylmethyl)isoxazole-3-carbohydroxamic Acid], the IC50 was 38700 nM in [1]; greater than 50000 nM in [2]; 44000 nM in [3]; 1510 ± 65 nM in test [8]; greater than 50000 nM in test [4]. Also, in test [1], the “SI HDAC1/6” value is 26. Moreover, the “SI HDAC3/6” value in test [3] is 29.

Regarding `Cc1[nH]c2ccccc2c1CCNCc1ccc(/C=C/C(=O)NO)cc1` [panobinostat], in [9], the “apoptosis and tumor growth” value is “promote apoptosis and reduce tumor growth”.
